Here are results for 30 compounds from ChEMBL document CHEMBL1201862, “PubChem BioAssay data set” (2004).

Molecules are shown by their SMILES.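 Compound exposure: 48 hours, 5 concentrations, 96-well plates. GI50 marks 50% less growth.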 The source made the active and inactive calls. No stated cut-off is given here; in the data, active = GI50 up to about 1.1 µM and inactive = higher. Residues, ends and D or L forms follow the SMILES beside them. Where only a bound is given, the exact number is not on record here.

Among the test systems are M19-MEL; LXFL 529; DLD-1; XF498; DMS-114; Hs-578T; BT-549.
Common to all, as to experiment: NCI-60 cell line screen, 48 h

For `C=C(C)C1CC=C(C)C(O)([C@@]2(O)C[C@H](C(=C)C)CC=C2C)C1` (stereo partly specified), the GI50 in the experiment on M19-MEL is 11.5 µM (inactive); in the experiment on LXFL 529, 26.6 µM (inactive); in the experiment on DLD-1, 30.3 µM (inactive); in the experiment with XF498, 14 µM (inactive); with DMS-114, 37.3 µM (inactive).

In the case of `C=C1C(=O)OC2CC3(C)CCCC(C)C3=CC12` (stereo unspecified), the GI50 in the experiment on Hs-578T is 2.91 µM (inactive); in the experiment with BT-549 it was 4.65 µM (inactive).

As for `CCOC(=O)C(Oc1ccc(OC)c2c1C(=O)CCC2)c1ccccc1` (stereo unspecified), the GI50 is > 100 µM (inactive) in the experiment on M19-MEL; > 100 µM (inactive) with LXFL 529; > 100 µM (inactive) in the experiment with DLD-1; > 100 µM (inactive) in the experiment on XF498; 84.7 µM (inactive) in the experiment on DMS-114.

For `OC(CCN1CCCCC1)(c1ccccc1)c1ccccc1` [PRIDINOL], the GI50 in the experiment on BT-549 was > 100 µM (inactive).

`N#C/C(=C/NC(=S)Nc1ccc(S(N)(=O)=O)cc1)C(N)=O`: the GI50 in the experiment with Hs-578T and with BT-549 was > 100 µM (inactive) throughout.

On to `CCCCCN(CCCCC)C(=O)[C@@H](CCC(=O)O)NC(=O)c1cc2ccccc2[nH]1`, for which the GI50 was 22.3 µM (inactive) in the experiment on M19-MEL; 41.7 µM (inactive) in the experiment with LXFL 529; 31.5 µM (inactive) in the experiment on DLD-1; 26 µM (inactive) in the experiment on XF498; 33 µM (inactive) with DMS-114.

Consider `CC(CC(C)[C@H]1CCC2[C@H]3C(CC(=O)[C@@]21C)[C@@]1(C)CCC(O)C[C@H]1C[C@@H]3O)C(=O)O` (stereo partly specified), for which the GI50 with BT-549 is > 100 µM (inactive).

With `COc1ccc(/C=C2\N=C3NC(=O)C(N4CCCCC4)=C(N)N3C2=O)cc1`, in the experiment with Hs-578T, the GI50 is 47.5 µM (inactive).

With `COc1cc2c3cc1Oc1c(OC)c(OC)cc4c1C(Cc1ccc(O)c(c1)Oc1ccc(cc1)CC3N(C)CC2)CN(C)C4` (stereo unspecified), the figures for the GI50 in the experiment on Hs-578T and in the experiment on BT-549 were 15.5 µM (inactive) and 14.8 µM (inactive), respectively.

As to `O=C1CNNC(CSc2nc3ccc(I)cc3c(=O)n2Cc2ccccc2)=N1`, the GI50 with Hs-578T is 32.9 µM (inactive); in the experiment with BT-549, 27.5 µM (inactive).

For the compound `Cc1nc(O)nc2nc3cc(Cl)cc(Cl)c3c(NC(C)(CO)CO)c12`, the GI50 in the experiment on Hs-578T is 31.6 µM (inactive); with BT-549, 35.6 µM (inactive).

Consider `Cc1cc2c(cc1C)C(=O)c1ncccc1C2=O`, for which the figures for the GI50 in the experiment with Hs-578T and with BT-549 were > 100 µM (inactive) and 40.9 µM (inactive), respectively.

Consider `c1ccc2c(c1)CCc1c-2n(CCN2CCCCC2)c2ccccc12`, for which the GI50 is 18.2 µM (inactive) in the experiment with Hs-578T and 17.9 µM (inactive) in the experiment on BT-549.

Take `COc1cc(OC)c(OC)cc1/C=C/c1nc2ccccc2s1`: the GI50 in the experiment with Hs-578T is 67 µM (inactive).

As to `CC(=O)N1c2ccccc2C23CCN4CC5=CCOC(O)C(C5CC42)C13` (stereo unspecified), the GI50 in the experiment on Hs-578T and with BT-549 was > 100 µM (inactive) each time.

Take `CCN(CC)CCNC(=O)c1cc2cc(NC(=O)c3cc4cc([N+](=O)[O-])ccc4[nH]3)ccc2[nH]1`: the GI50 in the experiment with BT-549 is > 60.8 µM (inactive).

On to `Cc1ccc(S(=O)(=O)N/N=C(\c2nc3ccc([N+](=O)[O-])cc3[nH]c2=O)C(O)c2ccc([N+](=O)[O-])cc2)cc1` (stereo unspecified), for which the GI50 in the experiment on M19-MEL was > 100 µM (inactive); with LXFL 529 it was 46 µM (inactive); in the experiment with DLD-1, 57.1 µM (inactive); with XF498 it was > 100 µM (inactive); in the experiment with DMS-114, 32 µM (inactive).

For `Cn1ncc2c(NCc3ccccc3)ncnc21`, the GI50 in the experiment with BT-549 was > 100 µM (inactive).

As for `COC(=O)c1cc(C)ccc1C1CN=NC12Cc1c(C)cc(C)cc1C2=O` (stereo unspecified), the GI50 was 18.7 µM (inactive) in the experiment with Hs-578T and 24.7 µM (inactive) in the experiment on BT-549.

Regarding `Nc1c2c(nc3ccccc13)-c1ccccc1CCC2`, the GI50 in the experiment on Hs-578T was 20.2 µM (inactive); with BT-549 it was 17.6 µM (inactive).

On to `N#CCC(=O)NC1C2CC3CC(C2)CC1C3` (stereo unspecified), for which the GI50 with M19-MEL was 24.5 µM (inactive); in the experiment with LXFL 529 it was 28.1 µM (inactive); in the experiment with DLD-1, 20.2 µM (inactive); in the experiment on DMS-114 it was 16 µM (inactive).

Turning to `CCOC1OC(COC(=O)C(C)(C)C)C(O)CC1n1cc(C)c(=O)[nH]c1=O` (stereo unspecified), the GI50 with Hs-578T and with BT-549 was > 100 µM (inactive) in each case.

With `CS[C@]12[C@@H]3C(=O)N(C)C(=O)[C@@H]3[C@](C)(C(=O)N1C)C(=O)N2c1ccccc1`, the GI50 in the experiment with Hs-578T and in the experiment with BT-549 was > 100 µM (inactive) each time.

In the case of `CCOC(=O)C#Cc1ccccc1`, the GI50 with Hs-578T was 19.3 µM (inactive); with BT-549, 11.6 µM (inactive).

As for `CCOC(CCNCC(OCC)OCC)OCC`, the GI50 in the experiment with Hs-578T and in the experiment with BT-549 was > 10 µM (inactive) each time.

Regarding `Cc1c(C(=O)C(=O)c2ccccc2)c(C)c(C(=O)C(=O)c2ccccc2)c(C)c1C(=O)C(=O)c1ccccc1`, the GI50 in the experiment with Hs-578T is > 100 µM (inactive).

As for `CCCCc1ccc(Nc2nc(Cl)c3c(ncn3COCCOC(C)=O)n2)cc1`, the figures for the GI50 with Hs-578T and with BT-549 were 21.5 µM (inactive) and 15 µM (inactive), respectively.

On to `CCC(C)C(NC(=O)C1CCCN1)C(=O)NC(C(=O)NCC(=O)NC(CC(N)=O)C(=O)NC(CC(C)C)C(=O)NC(CC(C)C)C(=O)NC(CCCCN)C(N)=O)C(C)C` (stereo unspecified) (H-PIVGNLLK-NH2; configuration not given here), for which the GI50 in the experiment with Hs-578T and in the experiment with BT-549 was > 75 µM (inactive) each time.

Consider `CCN(CC)c1ccc2cc(-c3nc4ccccc4n3C)c(=O)oc2c1`, for which the GI50 in the experiment with Hs-578T is 0.269 µM (active); with BT-549, 0.274 µM (active).

Take `CCOC(=O)c1ccc(NC(=O)O/N=C(/Cl)CCl)cc1`: the GI50 in the experiment on Hs-578T was > 100 µM (inactive).
